From patent publication US20240415778A1, “ORAL PREPARATION CONTAINING PROGESTOGEN, AND PREPARATION METHOD AND USE” (priority 2021, published 2024)
“Also recorded” adds a separate entry of the source. Read-outs that look alike come from different tables or passages of the source.

Tests used:
[1] = Solubility property of 17-HPC in different excipients; assay type: physicochemical
Description: However, the stable solubility concentrations vary for each excipient, with specific values provided in the last column of Table 2.

[2] = Acceptable daily intake (ADI) of excipients
Description: The applicant has previously collaborated with other entities to develop an oral formulation of 17-α hydroxyprogesterone and obtained a patent for it.

[3] = WHO-JECFA database or supplier values; cited from earlier work

## CCCCCC(=O)O[C@]1(C(C)=O)CC[C@H]2[C@@H]3CCC4=CC(=O)CC[C@]4(C)[C@H]3CC[C@@]21C [Formulation 17-HPC, hydroxyprogesterone caproate]
[1]; Glycerol Monooleate (Maisine ® CC)
  Suggested working concentrations based on physical stability and saturated solubility results: 65 mg/g
[1]; Mono-Octanoin Glyceride (Capmul 808G)
  Suggested working concentrations based on physical stability and saturated solubility results: 120 mg/g
[1]; Oleic Acid
  Suggested working concentrations based on physical stability and saturated solubility results: 70 mg/g
[1]; Oleic Acid Glyceride (Peceol ®)
  Suggested working concentrations based on physical stability and saturated solubility results: 50 mg/g
[1]; Olive Oil
  Suggested working concentrations based on physical stability and saturated solubility results: insufficient to meet the meaningful solubility concentration required for adult formulations
[1]; PEG15 Hydroxystearate (Kolliphor ® HS15)
  Suggested working concentrations based on physical stability and saturated solubility results: cannot achieve stable solubility; also recorded: Chemically unstable
[1]; PEG35 Castor Oil (Kolliphor ® ELP)
  Suggested working concentrations based on physical stability and saturated solubility results: 30 mg/g
[1]; PEG40 Hydrogenated Castor Oil (Kolliphor ® RH40)
  Suggested working concentrations based on physical stability and saturated solubility results: cannot achieve stable solubility; also recorded: Chemically unstable
[1]; Propylene Glycol Monocaprylate (Capryol ® 90)
  Suggested working concentrations based on physical stability and saturated solubility results: 150 mg/g
[1]; Propylene Glycol Monolaurate (Lauroglycol ® 90)
  Suggested working concentrations based on physical stability and saturated solubility results: 100 mg/g

## CCCCCCCC(=O)OCC(O)CO (centres unmarked) [Glycerol monocaprylate]
[2]
  ADI/Weight 60 kg: none
[3]
  Acceptable Daily Intake (ADI): none

## Propylene glycol monocaprylate
[2]; for 60 kg body weight
  ADI/Weight 60 kg: 3.36
[3]
  Acceptable Daily Intake (ADI): 56 mg/kg/day
